We go through two compounds from US6730503B1 (Roche Vitamins Inc., priority 1996, dated 2004).

As a reminder, the Km is the concentration of substrate that gives half-maximal velocity. One may read the Ki as a measure of affinity in units of concentration, obtained from inhibition or displacement.

Assay [1] relates to Gluconobacter oxydans DSM No. 4025 AADH chimera Enzyme sB (Enzyme A residues 1-95, Enzyme B residues 96-180, Enzyme A residues 180-556; parents SEQ ID NO: …). Kind of assay: Kinetic properties of chimera Enzyme sB. As to conditions: read-out: Km (sorbitol). Format: biochemical. An excerpt:
To further improve the chimeras, Enzyme A/B21, Enzyme A/B22, Enzyme A/B25 and Enzyme A/B31 in the view point of the preferable codon usage, the C-terminal two thirds consisting of Enzyme B residues were replaced with the C-terminal two thirds consisting of Enzyme A residues. Enzyme A/B21, Enzyme A/B22, Enzyme A/B25 and Enzyme A/B31 genes were used for constructing new chimera genes of Enzyme sA21 (Enzyme A ammo acid residue Nos. 1-128, Enzyme B amino acid residue Nos. 129-180 and Enzyme A amino acid residue Nos. 180-556), Enzyme sA22 (Enzyme A amino acid residue Nos. 1-125, Enzyme B amino acid residue Nos. 126-180 and Enzyme A amino acid residue Nos. 180-556), Enzyme sA2 (Enzyme A amino acid residue Nos. 1-135, Enzyme B amino acid residue Nos. 136-180 and Enzyme A amino acid residue Nos. 180-556) and Enzyme sB (Enzyme A amino acid residue Nos. 1-95, Enzyme B amino acid residue Nos. 96-180 and Enzyme A amino acid residue Nos. 180-556) (FIG. 4). […]

Assay [2] has as its target T1, Gluconobacter oxydans DSM No. 4025 alcohol/aldehyde dehydrogenase Enzyme B, wild type, SEQ ID NO: 8 (Ketogulonicigenium vulgare, UniProt F9Y8N6).
T1 construct: 579 aa precursor with 23 aa signal peptide
T1 sequence (F9Y8N6 24-579): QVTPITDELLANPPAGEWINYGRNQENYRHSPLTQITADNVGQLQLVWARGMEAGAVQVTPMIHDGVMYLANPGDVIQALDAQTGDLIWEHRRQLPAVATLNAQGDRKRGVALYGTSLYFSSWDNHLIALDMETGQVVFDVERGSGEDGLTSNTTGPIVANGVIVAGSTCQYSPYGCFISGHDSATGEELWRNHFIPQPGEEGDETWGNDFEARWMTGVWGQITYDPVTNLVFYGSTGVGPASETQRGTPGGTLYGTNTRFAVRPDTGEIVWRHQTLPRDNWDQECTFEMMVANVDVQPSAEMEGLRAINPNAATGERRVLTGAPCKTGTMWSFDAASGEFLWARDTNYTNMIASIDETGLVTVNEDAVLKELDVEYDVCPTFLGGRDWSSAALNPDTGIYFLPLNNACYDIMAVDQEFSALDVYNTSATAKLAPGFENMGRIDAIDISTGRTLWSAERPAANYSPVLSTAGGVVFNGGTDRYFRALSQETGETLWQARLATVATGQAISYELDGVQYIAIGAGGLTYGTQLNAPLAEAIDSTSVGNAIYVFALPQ
The assay is described as follows: Kinetic properties of Enzyme B. It is filed as biochemical. The source says:
Tables 11 and 12 summarizes the kinetic properties of chimera enzymes, Enzyme sA2 and Enzyme sB in comparison with Enzyme A and Enzyme B, respectively.

`OC[C@@H](O)[C@@H](O)[C@H](O)[C@@H](O)CO` [sorbitol, D-sorbitol]: the Km in assay [1] was found to be 61 mM.

`OCC1(O)OC[C@H](O)[C@@H](O)[C@@H]1O` (stereo partly drawn) [sorbose, L-sorbose] returned a Ki in assay [2] of 100 mM.
